Test system: primary human T cells
Assay: FD10 delivery in primary human T cells by flow cytometry
Format: cell-based
Conditions: human T cells with dex-NG and FD10, ROS scavenger added (FIG. 12a)
Protocol: FIG. 8. […] Human T cells were isolated from peripheral blood mononuclear cells and expanded for several weeks. […] As a control, cells were treated with nucleofection (program E0-115, Lonza Nucleofector, white bars) (a) Quantitative analysis of FD10 delivery efficiency using flow cytometry. Cells were stained with a membrane exclusion dye (TO-PRO-3 iodide) staining dead cells. TO-PRO-3 iodide negative cells were gated for delivery efficiency analysis. (b) Analysis of cell viability, 4 h after treatment, using an ATP-based viability assay (CellTiter-Glo®). (c-d) Quantitative analysis of FD10 delivery efficiency using flow cytometry on TO-PRO-3 iodide negative cells. The yield is determined as percentage living cells (based on CellTiter-Glo® assay), multiplied by the percentage of FD10-positive cells. Data shown as the mean±SD of three independent experiments (n=3). Statistical significance is reported where relevant (ns p≥0.05, * p<0.05, ** p≤0.01, *** p≤0.001, **** p≤0.0001).
Human T cells were seeded at 1×10^6 cells per well in a glass bottom 96-well plate (Greiner Bio-One GmbH, Vilvoorde, Belgium). […] Quantitative analysis of delivery efficiency was performed using flow cytometry on living (i.e. TO-PRO-3 negative) cells (CytoFLEX equipped with CytExpert software; Beckman Coulter, Krefeld, Germany). […]

Structure (SMILES): OCCS [β-mercaptoethanol]
- beneficial effect on cytosolic FD10 delivery as seen with NAC: could not be replicated

Reference: patent US20240165261A1, “MEANS AND METHOD FOR CYTOSOLIC DELIVERY” (Universiteit Gent, priority 2021, published 2024)
